{
  "source": "paper PMC6199309",
  "about": "“A therapeutic approach to pantothenate kinase associated neurodegeneration” (Nature Communications, 2018)",
  "key": {"ACVR2A": {"molecular_target": "T1, ACVR2A (Homo sapiens, UniProt P27037)", "T1 construct": "purchased DiscoverX KINOMEscan", "assay": "KINOMEscan", "assay_type": "binding", "conditions": "read-out: %Ctrl @ 10000nM"}, "RIOK2": {"molecular_target": "T2, RIOK2 (Homo sapiens, UniProt Q9BVS4)", "T2 construct": "purchased DiscoverX KINOMEscan", "T2 sequence (Q9BVS4 whole entry)": "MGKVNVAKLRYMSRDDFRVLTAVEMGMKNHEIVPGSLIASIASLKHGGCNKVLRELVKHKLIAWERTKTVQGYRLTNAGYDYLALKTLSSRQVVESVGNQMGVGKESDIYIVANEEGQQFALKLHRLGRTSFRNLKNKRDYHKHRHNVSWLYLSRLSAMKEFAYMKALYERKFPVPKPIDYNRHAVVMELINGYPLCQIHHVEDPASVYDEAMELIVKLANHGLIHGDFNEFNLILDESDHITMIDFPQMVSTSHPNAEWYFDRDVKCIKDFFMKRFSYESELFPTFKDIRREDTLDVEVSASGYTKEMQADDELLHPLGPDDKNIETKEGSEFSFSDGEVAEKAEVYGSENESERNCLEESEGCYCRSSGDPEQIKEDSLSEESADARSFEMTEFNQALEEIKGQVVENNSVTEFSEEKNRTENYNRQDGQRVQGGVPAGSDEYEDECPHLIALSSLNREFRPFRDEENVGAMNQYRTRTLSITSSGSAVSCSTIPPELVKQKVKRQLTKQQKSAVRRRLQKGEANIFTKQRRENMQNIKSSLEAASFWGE", "assay": "KINOMEscan", "assay_type": "binding", "conditions": "read-out: %Ctrl @ 10000nM"}, "GRK1": {"molecular_target": "T3, GRK1 (Homo sapiens, UniProt Q15835)", "T3 construct": "purchased DiscoverX KINOMEscan", "T3 sequence (Q15835 whole entry)": "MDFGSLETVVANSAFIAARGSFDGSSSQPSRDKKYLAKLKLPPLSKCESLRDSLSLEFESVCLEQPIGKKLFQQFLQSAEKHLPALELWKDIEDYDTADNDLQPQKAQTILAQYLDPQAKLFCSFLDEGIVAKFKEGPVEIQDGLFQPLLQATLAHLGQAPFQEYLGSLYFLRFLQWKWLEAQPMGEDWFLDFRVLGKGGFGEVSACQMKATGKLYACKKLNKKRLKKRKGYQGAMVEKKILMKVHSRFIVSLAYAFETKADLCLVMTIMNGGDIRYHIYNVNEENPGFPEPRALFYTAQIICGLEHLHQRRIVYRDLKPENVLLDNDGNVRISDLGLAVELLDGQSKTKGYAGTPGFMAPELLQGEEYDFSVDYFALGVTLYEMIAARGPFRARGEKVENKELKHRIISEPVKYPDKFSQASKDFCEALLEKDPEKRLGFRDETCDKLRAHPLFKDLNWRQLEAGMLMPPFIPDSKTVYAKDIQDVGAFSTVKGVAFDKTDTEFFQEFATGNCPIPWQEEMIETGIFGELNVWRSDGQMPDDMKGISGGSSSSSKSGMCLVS", "assay": "KINOMEscan", "assay_type": "binding", "conditions": "read-out: %Ctrl @ 10000nM"}, "NEK9": {"molecular_target": "T4, NEK9 (Homo sapiens, UniProt Q8TD19)", "T4 construct": "purchased DiscoverX KINOMEscan", "assay": "KINOMEscan", "assay_type": "binding", "conditions": "read-out: %Ctrl @ 10000nM"}, "[1]": {"assay": "Pharmacokinetics in plasma of male BALB/c mice", "assay_type": "in vivo", "conditions": "mouse", "experimental": "Supplementary Table 2. […] Mean pharmacokinetic parameters of PZ- […]\nadministration to male BALB/c micea.\nDose Tmax C0/ Cmaxc AUClast AUCinf T1/2 CL Vss %Fd […]\naPharmacokinetics measurements performed by Sai Life Sciences Limited. […]\ncBack extrapolated concentration for i.v. group. dBioavailability was calculated based on AUClast."}, "CAMK4": {"molecular_target": "T5, CAMK4 (Homo sapiens, UniProt Q16566)", "T5 construct": "purchased DiscoverX KINOMEscan", "T5 sequence (Q16566 whole entry)": "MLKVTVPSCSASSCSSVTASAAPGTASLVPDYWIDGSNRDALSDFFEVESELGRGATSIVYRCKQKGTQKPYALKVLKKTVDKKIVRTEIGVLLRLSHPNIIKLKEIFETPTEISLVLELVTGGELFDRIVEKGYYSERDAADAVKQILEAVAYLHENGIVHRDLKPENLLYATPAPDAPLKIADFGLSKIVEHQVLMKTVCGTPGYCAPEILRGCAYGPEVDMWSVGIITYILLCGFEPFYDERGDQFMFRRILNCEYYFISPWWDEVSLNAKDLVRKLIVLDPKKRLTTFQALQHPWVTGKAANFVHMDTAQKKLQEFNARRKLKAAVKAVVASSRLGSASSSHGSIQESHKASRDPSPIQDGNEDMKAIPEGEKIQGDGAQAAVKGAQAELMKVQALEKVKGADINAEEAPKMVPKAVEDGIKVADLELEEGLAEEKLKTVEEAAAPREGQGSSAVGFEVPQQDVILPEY", "assay": "KINOMEscan", "assay_type": "binding", "conditions": "read-out: %Ctrl @ 10000nM"}, "CTK": {"molecular_target": "T6, CTK (Homo sapiens, UniProt P42679)", "T6 construct": "purchased DiscoverX KINOMEscan", "assay": "KINOMEscan", "assay_type": "binding", "conditions": "read-out: %Ctrl @ 10000nM"}, "RIOK1": {"molecular_target": "T7, RIOK1 (Homo sapiens, UniProt Q9BRS2)", "T7 construct": "purchased DiscoverX KINOMEscan", "T7 sequence (Q9BRS2 whole entry)": "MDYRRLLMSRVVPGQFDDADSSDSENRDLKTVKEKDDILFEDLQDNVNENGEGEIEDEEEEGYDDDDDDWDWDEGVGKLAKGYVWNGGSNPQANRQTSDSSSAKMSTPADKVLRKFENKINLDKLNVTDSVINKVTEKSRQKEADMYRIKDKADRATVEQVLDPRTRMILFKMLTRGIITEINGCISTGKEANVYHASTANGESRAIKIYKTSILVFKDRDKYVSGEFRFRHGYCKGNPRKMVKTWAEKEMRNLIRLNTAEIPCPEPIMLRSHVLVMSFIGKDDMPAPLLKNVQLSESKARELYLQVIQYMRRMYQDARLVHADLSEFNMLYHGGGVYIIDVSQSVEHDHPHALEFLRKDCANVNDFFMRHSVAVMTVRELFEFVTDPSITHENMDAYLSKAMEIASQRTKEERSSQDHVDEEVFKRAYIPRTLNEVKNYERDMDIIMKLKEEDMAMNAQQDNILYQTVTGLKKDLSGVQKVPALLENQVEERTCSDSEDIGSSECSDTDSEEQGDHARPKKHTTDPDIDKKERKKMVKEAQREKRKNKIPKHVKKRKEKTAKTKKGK", "assay": "KINOMEscan", "assay_type": "binding", "conditions": "read-out: %Ctrl @ 10000nM"}, "CSNK1G2": {"molecular_target": "T8, CSNK1G2 (Homo sapiens, UniProt P78368)", "T8 construct": "purchased DiscoverX KINOMEscan", "T8 sequence (P78368 whole entry)": "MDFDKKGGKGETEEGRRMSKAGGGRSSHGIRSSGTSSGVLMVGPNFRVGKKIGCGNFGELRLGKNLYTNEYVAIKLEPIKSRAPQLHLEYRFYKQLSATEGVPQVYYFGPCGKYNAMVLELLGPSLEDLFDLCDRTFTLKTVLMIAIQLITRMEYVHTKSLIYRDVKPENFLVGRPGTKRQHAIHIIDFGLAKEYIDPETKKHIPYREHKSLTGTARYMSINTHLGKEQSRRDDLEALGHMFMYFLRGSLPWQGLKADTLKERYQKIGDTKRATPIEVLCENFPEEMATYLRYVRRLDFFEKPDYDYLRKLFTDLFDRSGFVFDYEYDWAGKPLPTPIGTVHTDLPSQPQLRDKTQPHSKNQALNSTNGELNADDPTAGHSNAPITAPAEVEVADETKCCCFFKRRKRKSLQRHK", "assay": "KINOMEscan", "assay_type": "binding", "conditions": "read-out: %Ctrl @ 10000nM"}, "VEGFR2": {"molecular_target": "T9, VEGFR2 (Homo sapiens, UniProt P35968)", "T9 construct": "DNA label for qPCR (T7 phage fusion or DNA tag); purchased DiscoverX scanMAX; host or cells: E. coli BL21-derived (T7 phage) or HEK-293", "assay": "KINOMEscan", "assay_type": "binding", "conditions": "read-out: %Ctrl @ 10000nM"}, "LATS2": {"molecular_target": "T10, LATS2 (Homo sapiens, UniProt Q9NRM7)", "T10 construct": "purchased DiscoverX KINOMEscan", "T10 sequence (Q9NRM7 whole entry)": "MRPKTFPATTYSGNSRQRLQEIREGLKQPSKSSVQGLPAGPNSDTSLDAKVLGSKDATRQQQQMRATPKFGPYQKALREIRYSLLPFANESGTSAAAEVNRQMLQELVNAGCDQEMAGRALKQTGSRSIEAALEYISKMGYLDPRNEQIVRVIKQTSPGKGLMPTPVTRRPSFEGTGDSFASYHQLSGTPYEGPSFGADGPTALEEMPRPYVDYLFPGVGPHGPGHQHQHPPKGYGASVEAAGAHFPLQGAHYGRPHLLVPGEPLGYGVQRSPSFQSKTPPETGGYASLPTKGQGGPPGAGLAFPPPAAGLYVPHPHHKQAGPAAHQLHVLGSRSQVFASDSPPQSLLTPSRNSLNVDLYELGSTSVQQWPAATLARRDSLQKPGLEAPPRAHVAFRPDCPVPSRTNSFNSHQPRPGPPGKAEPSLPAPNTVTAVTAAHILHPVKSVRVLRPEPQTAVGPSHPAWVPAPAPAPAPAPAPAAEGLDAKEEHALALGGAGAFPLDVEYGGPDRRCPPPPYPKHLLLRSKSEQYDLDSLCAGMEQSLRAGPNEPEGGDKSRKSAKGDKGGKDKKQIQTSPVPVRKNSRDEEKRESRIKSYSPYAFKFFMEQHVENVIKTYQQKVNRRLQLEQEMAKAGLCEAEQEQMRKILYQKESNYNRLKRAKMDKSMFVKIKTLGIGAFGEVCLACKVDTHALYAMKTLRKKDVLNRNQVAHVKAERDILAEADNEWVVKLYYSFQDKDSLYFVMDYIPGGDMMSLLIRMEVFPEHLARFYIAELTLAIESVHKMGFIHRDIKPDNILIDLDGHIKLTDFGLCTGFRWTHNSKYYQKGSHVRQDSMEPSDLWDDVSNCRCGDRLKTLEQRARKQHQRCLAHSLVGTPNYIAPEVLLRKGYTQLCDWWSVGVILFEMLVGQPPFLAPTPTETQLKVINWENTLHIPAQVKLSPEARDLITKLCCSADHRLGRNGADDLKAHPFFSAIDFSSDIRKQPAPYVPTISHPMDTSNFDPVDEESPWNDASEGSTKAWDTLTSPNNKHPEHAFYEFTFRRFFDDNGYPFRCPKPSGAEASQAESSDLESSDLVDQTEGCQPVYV", "assay": "KINOMEscan", "assay_type": "binding", "conditions": "read-out: %Ctrl @ 10000nM"}, "CAMKK1": {"molecular_target": "T11, CAMKK1 (Homo sapiens, UniProt Q8N5S9)", "T11 construct": "purchased DiscoverX KINOMEscan", "T11 sequence (Q8N5S9 whole entry)": "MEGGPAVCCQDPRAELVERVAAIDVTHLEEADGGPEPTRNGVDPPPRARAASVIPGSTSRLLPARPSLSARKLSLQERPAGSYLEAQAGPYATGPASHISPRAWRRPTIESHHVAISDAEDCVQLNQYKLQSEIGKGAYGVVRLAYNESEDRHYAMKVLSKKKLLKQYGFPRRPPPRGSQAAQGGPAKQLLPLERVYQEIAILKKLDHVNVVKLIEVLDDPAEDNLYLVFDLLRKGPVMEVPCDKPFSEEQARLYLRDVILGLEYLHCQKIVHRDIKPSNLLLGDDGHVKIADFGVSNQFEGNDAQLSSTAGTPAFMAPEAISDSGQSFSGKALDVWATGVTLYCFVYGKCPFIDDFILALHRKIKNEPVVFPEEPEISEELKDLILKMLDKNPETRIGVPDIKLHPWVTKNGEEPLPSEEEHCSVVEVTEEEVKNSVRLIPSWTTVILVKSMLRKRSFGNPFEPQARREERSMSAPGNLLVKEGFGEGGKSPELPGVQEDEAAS", "assay": "KINOMEscan", "assay_type": "binding", "conditions": "read-out: %Ctrl @ 10000nM"}, "CSF1R": {"molecular_target": "T12, CSF1R (Homo sapiens, UniProt P07333)", "T12 construct": "purchased DiscoverX KINOMEscan", "assay": "KINOMEscan", "assay_type": "binding", "conditions": "read-out: %Ctrl @ 10000nM"}, "PFTK1": {"molecular_target": "T13, PFTK1 (Homo sapiens, UniProt O94921)", "T13 construct": "purchased DiscoverX KINOMEscan", "T13 sequence (O94921 whole entry)": "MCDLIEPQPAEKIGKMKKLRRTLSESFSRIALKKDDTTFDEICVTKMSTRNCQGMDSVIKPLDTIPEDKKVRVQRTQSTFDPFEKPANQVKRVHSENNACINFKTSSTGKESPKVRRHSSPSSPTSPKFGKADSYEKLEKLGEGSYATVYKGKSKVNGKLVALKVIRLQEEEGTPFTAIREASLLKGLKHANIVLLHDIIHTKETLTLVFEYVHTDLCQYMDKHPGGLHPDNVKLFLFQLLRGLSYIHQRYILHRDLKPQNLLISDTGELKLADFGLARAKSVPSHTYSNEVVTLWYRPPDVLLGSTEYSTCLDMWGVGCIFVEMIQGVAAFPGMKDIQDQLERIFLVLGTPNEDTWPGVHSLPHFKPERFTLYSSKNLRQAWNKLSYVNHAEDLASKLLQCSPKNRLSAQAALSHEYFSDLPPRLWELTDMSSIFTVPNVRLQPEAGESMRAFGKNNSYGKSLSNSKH", "assay": "KINOMEscan", "assay_type": "binding", "conditions": "read-out: %Ctrl @ 10000nM"}, "[2]": {"molecular_target": "T14, RSK3(Kin.Dom.2-C-terminal) (Homo sapiens, UniProt Q15349)", "T14 construct": "RSK3(Kin.Dom.2-C-terminal); purchased DiscoverX KINOMEscan", "T14 sequence (Q15349 389-733 limits assumed)": "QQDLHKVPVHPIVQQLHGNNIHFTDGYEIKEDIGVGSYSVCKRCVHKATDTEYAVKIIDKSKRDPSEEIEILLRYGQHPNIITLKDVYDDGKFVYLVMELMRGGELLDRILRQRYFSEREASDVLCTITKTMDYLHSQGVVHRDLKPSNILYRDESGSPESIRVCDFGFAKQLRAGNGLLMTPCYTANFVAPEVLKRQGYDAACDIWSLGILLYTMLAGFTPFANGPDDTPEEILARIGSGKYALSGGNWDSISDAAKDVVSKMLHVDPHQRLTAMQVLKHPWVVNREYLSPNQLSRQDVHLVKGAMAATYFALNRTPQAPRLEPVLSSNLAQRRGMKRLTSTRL", "assay": "KINOMEscan", "assay_type": "binding", "conditions": "read-out: %Ctrl @ 10000nM"}, "CHEK1": {"molecular_target": "T15, CHEK1 (Homo sapiens, UniProt O14757)", "T15 construct": "purchased DiscoverX KINOMEscan", "assay": "KINOMEscan", "assay_type": "binding", "conditions": "read-out: %Ctrl @ 10000nM"}},
  "note": "Like-named read-outs stand apart in the source and are kept apart here.",
  "data": [
    {"smiles": "CC(C)c1ccc(CC(=O)N2CCN(c3ccc(C#N)nn3)CC2)cc1", "note": "[PZ-2891, 6-(4-(2-(4-isopropylphenyl)acetyl)piperazin-1-yl)pyridazine-3-carbonitrile]", "values": [
      {"measurement": "remaining binding at 10 µM", "setting": "ACVR2A", "value": 100, "unit": "%"},
      {"measurement": "remaining binding at 10 µM", "setting": "RIOK2", "value": 86, "unit": "%"},
      {"measurement": "remaining binding at 10 µM", "setting": "GRK1", "value": 72, "unit": "%"},
      {"measurement": "remaining binding at 10 µM", "setting": "NEK9", "value": 96, "unit": "%"},
      {"measurement": "half-life", "setting": "[1]; intravenous, 2 mg/kg, mice plasma, read-out: T1/2 (mice plasma)", "value": 17, "unit": "min"},
      {"measurement": "AUC(0-inf)", "setting": "[1]; plasma, iv, i.v. 2 mg/kg", "value": 611, "unit": "ng·h/mL"},
      {"measurement": "AUC(0-t)", "setting": "[1]; plasma, iv, i.v. 2 mg/kg", "value": 609, "unit": "ng·h/mL"},
      {"measurement": "clearance", "setting": "[1]; plasma, iv, i.v. 2 mg/kg", "value": 54.5, "unit": "mL/min/kg"},
      {"measurement": "C0", "setting": "[1]; plasma, iv, i.v. 2 mg/kg, back extrapolated concentration", "value": 2810, "unit": "ng/mL"},
      {"measurement": "half-life", "setting": "[1]; plasma, iv, i.v. 2 mg/kg, read-out: T1/2 (converted)", "value": 16.8, "unit": "min"},
      {"measurement": "Vd", "setting": "[1]; plasma, iv, i.v. 2 mg/kg, read-out: Vss", "value": 0.94, "unit": "L/kg"},
      {"measurement": "AUC(0-inf)", "setting": "[1]; plasma, po, p.o. 10 mg/kg", "value": 1420, "unit": "ng·h/mL"},
      {"measurement": "AUC(0-t)", "setting": "[1]; plasma, po, p.o. 10 mg/kg", "value": 1400, "unit": "ng·h/mL"},
      {"measurement": "Cmax", "setting": "[1]; plasma, po, p.o. 10 mg/kg", "value": 1890, "unit": "ng/mL"},
      {"measurement": "Tmax", "setting": "[1]; plasma, po, p.o. 10 mg/kg", "value": 15, "unit": "min"},
      {"measurement": "remaining binding at 10 µM", "setting": "CAMK4", "value": 89, "unit": "%"},
      {"measurement": "remaining binding at 10 µM", "setting": "CTK", "value": 77, "unit": "%"},
      {"measurement": "remaining binding at 10 µM", "setting": "RIOK1", "value": 100, "unit": "%"},
      {"measurement": "remaining binding at 10 µM", "setting": "CSNK1G2", "value": 62, "unit": "%"},
      {"measurement": "remaining binding at 10 µM", "setting": "VEGFR2", "value": 75, "unit": "%"},
      {"measurement": "remaining binding at 10 µM", "setting": "LATS2", "value": 82, "unit": "%"},
      {"measurement": "remaining binding at 10 µM", "setting": "CAMKK1", "value": 89, "unit": "%"},
      {"measurement": "remaining binding at 10 µM", "setting": "CSF1R", "value": 91, "unit": "%"},
      {"measurement": "remaining binding at 10 µM", "setting": "PFTK1", "value": 92, "unit": "%"},
      {"measurement": "remaining binding at 10 µM", "setting": "[2]", "value": 66, "unit": "%"},
      {"measurement": "remaining binding at 10 µM", "setting": "CHEK1", "value": 83, "unit": "%"}
    ]}
  ]
}
